Data set [1] concerns the target T1, Human recombinant monoamine oxidase A (Homo sapiens, UniProt P21397).
T1 construct: host or cells: Sf9 cells
T1 sequence (P21397 1-527): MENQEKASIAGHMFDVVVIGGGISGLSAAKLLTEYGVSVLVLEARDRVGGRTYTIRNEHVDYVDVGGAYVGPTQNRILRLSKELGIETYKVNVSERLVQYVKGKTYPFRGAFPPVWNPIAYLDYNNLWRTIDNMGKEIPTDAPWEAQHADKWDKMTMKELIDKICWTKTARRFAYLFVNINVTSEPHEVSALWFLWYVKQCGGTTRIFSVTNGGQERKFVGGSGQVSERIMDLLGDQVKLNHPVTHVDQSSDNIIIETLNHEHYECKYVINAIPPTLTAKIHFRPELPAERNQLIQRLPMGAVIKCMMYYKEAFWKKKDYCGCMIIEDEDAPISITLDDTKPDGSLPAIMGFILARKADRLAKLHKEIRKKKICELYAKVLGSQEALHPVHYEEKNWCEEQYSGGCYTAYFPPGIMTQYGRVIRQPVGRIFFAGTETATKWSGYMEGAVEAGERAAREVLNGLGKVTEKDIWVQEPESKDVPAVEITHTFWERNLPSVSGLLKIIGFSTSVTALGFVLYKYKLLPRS
Put plainly: Inhibitory effect on the activity of monoamine oxidase A. The format is biochemical. Conditions: human recombinant MAO-A, substrate p-tyramine hydrochloride. As to the method: Human recombinant monoamine oxidase A expressed in Sf9 cells was used in the test system. In the experiment, firstly, the recombinant monoamine oxidase A was dissolved in the pre-configured HEPES buffer (0.8% NaCl, 0.037% KCl, 0.0135% Na2HPO4.2H2O, 0.1% Glucan, 0.5% HEPES, pH=7.0) at a concentration of 0.3 μg/μL. To each well of a 384-well plate was added 10 μL of monoamine oxidase A solution, and the test compound with different concentrations (the final concentration of DMSO was 1%) (10 gradient concentrations were 10 mM, 1 mM, 100 μM, 10 μM, 1 μM, 100 nM, 10 nM, 1 nM, 0.1 nM, 0.01 nM) were added into the wells, respectively. The standard reference compound was Clorgyline, the plate was incubated at room temperature for 15 min. Then, each well filled with […] (p-Tyramine hydrochloride, 1 mM) was incubated at room temperature for 60 min. Then 20 μL of fluorescein detection reagent was added to each well, which was fully blended and incubated at room temperature for 20 minutes to produce stable fluorescence signal. The fluorescence signal was read by fluorescein labeling instrument, and the value was expressed by relative light intensity (RLU). The inhibitory rate on enzyme activity was calculated according to the experimental results, the calculated formula: Inh %=(Max−Signal)/(Max−Min)*100, wherein Max was the detected value at the maximum concentration of the sample, Min was the detected value at the minimum concentration of the sample, and Signal was the detected value at the current concentration of the sample.
(§1) The standard curve was obtained through the series concentration by experimental test to calculate the IC50.

Data set [2] addresses T2, Human recombinant monoamine oxidase B (Homo sapiens, UniProt P27338).
T2 construct: host or cells: Sf9 cells
T2 sequence (P27338 1-520): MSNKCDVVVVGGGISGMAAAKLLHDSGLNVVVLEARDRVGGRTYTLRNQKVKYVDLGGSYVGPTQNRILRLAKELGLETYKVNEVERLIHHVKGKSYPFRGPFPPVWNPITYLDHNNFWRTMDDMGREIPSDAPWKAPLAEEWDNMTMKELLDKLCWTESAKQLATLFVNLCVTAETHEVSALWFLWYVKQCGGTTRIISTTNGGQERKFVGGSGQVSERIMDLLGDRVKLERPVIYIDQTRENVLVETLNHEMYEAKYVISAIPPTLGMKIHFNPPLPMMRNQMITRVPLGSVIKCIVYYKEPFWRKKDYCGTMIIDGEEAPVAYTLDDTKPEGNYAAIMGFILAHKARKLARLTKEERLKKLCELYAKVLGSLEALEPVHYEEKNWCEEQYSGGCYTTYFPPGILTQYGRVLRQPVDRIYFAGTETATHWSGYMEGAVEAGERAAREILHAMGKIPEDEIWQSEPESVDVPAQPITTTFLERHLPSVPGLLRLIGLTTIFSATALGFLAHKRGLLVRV
As to the kind of experiment: Inhibitory effect on the activity of monoamine oxidase B. The format is biochemical. Conditions: human recombinant MAO-B, substrate benzylamine hydrochloride. As to the method: Human recombinant monoamine oxidase B expressed in Sf9 cells was used in the test system. In the experiment, firstly, the recombinant monoamine oxidase B was dissolved in the pre-configured HEPES buffer (0.8% NaCl, 0.037% KCl, 0.0135% Na2HPO4.2H2O, 0.1% Glucan, 0.5% HEPES, pH=7.0) at a concentration of 0.3 μg/μL. To each well of a 384-well plate was added 10 μL of monoamine oxidase B solution, and the test compound with different concentrations (the final concentration of DMSO was 1%) (10 gradient concentrations were 10 mM, 1 mM, 100 μM, 10 μM, 1 μM, 100 nM, 10 nM, 1 nM, 0.1 nM, 0.01 nM) were added into the wells respectively. The standard reference compound was R-(−)-Deprenyl, the plate was incubated at room temperature for 15 min. Then, each well filled with 10 μL substrate solution (Benzylamine hydrochloride, 1 mM) was incubated at room temperature for 60 min. Then 20 μL of fluorescein detection reagent was added to each well, which was fully blended and incubated at room temperature for 20 minutes to produce stable fluorescence signal. The fluorescence signal was read by fluorescein labeling instrument, and the value was expressed by relative light intensity (RLU). The inhibitory rate on enzyme activity was calculated according to the experimental results, the calculated formula: Inh %=(Max−Signal)/(Max−Min)*100, wherein Max was the detected value at the maximum concentration of the sample, Min was the detected value at the minimum concentration of the sample, and Signal was the detected value at the current concentration of the sample.
as §1

Data set [3] can be described thus: Pharmacokinetic evaluation after intravenous or gavage administration in rats. The data set is classed as in vivo, SD rats. How it is done: The LC-MS/MS system comprises Agilent 1200 series vacuum degassing furnace, quaternary pumps, well-plate autosampler, thermostatted column compartment, the API4000Qtrap Triple Quadrupole Mass Spectrometer with an electrospray ionization (ESI) source. Quantitative analysis was carried out using MRM mode. The parameters for MRM transitions are in Table 2.
Analysis was carried out on waters xbridge C18 (2.1×50 mm, […] column, 0.5 μL of sample), the analytic conditions are mobile phases cosisting of water+2 mM ammonium formate+0.1% formic acid (Phase A) and methanol+2 mM ammonium formate+0.1% formic acid (Phase B). The flow rate was 0.4 mL/min. And the gradient of Mobile phase was in Table 3.
Each animal species was divided into two groups: one was administered intravenously and the other was administered intragastrically. The compounds disclosed herein were administered in form of a solution containing 5% DMSO+5% Kolliphor HS15+90% Saline. For the group of intravenous administration, the administration dose was 1 mg/kg, and vein blood samples (0.3 ml) were collected at the time points of 0.083, 0.25, 0.5, 1.0, 2.0, 4.0, 6.0, 8.0 and 24 h after drug administration, then plasma solutions were collected by centrifuging each blood sample at 3000 rpm or 4000 rpm for 10 minutes and kept at −20° C. or −70° C. For the group of intragastric administration, the administration dose was 5 mg/kg, and vein blood samples (0.3 mL) were collected at the time points of 0.25, 0.5, 1.0, 2.0, 4.0, 6.0, 8.0 and 24 h after drug administration, then plasma solutions were collected by centrifuging each blood sample at 3000 rpm or 4000 rpm for 10 minutes and kept at −20° C. or −70° C.
20 μL of plasma was blended with 120 μl, 50 ng/ml propranolol standard water solution, then the mixture was extracted with 1.0 mL methyl tert-butyl ether (MTBE), 0.7 mL of supernatant was dried by blow with nitrogen and then dissolved again with 220 μL methanol water (methanol/water (v/v)=1/1). LC-MS/MS method was used to detect the concentration of the target compounds, and […] was used to calculate the pharmacokinetic parameters.

The mark [4] stands for this setting: SD, rat, plasma, iv, i.v group, 1 mg/kg.
[5] abbreviates: SD, rat, plasma, po, i.g group, 5 mg/kg.

Consider `C[C@H]1C[C@@H](C(N)=O)N(Cc2ccc(OCc3cccc(F)c3)cc2)C1` [Example 14, (2S,4S)-1-(4-(3-fluorobenzyloxy)benzyl)-4-methylpyrrolidine-2-formamide], for which the results for the IC50 in data set [1] and in data set [2] were 27000 nM and 83 nM, respectively.

With `C[C@H]1C[C@@H](C(N)=O)N(Cc2ccc(OCc3cccc(F)c3)cc2F)C1` [Example 15, (2S,4S)-1-(2-fluoro-4-(3-fluorobenzyloxy)benzyl)-4-methylpyrrolidine-2-formamide], the IC50 in data set [1] stood at 29000 nM; in data set [2], 130 nM.

For the molecule `CC1(C)C[C@@H](C(N)=O)N(Cc2ccc(OCc3cccc(F)c3)cc2)C1` [Example 8, (S)-1-(4-(3-fluorobenzyloxy)benzyl)-4,4-dimethylpyrrolidine-2-formamide], the IC50 in data set [2] turned out to be 1400 nM.

As for `NC(=O)[C@@H]1CC(F)(F)CN1Cc1ccc(OCc2cccc(F)c2)cc1F` [Example 11, (S)-4,4-difluoro-1-(2-fluoro-4-(3-fluorobenzyloxy)benzyl) pyrrolidine-2-formamide], the IC50 in data set [2] is 2200 nM.

`NC(=O)[C@@H]1CC(F)(F)CN1Cc1ccc(OCc2cccc(F)c2)cc1` [Example 10, (S)-4,4-difluoro-1-(4-(3-fluorobenzyloxy)benzyl)pyrrolidine-2-formamide]: the IC50 in data set [2] came out at 1100 nM.

Turning to `NC(=O)[C@@H]1C[C@@H](F)CN1Cc1ccc(OCc2cccc(F)c2)cc1` [Example 12, (2S,4R)-4-fluoro-1-(4-(3-fluorobenzyloxy)benzyl)pyrrolidine-2-formamide], in data set [3] (setting [4]), the AUC(0-inf) amounted to 453 ng·h/mL, the AUC(0-t) came to 452 ng·h/mL, the Cmax worked out at 661 ng/mL and the MRT inf came out at 40 min. In data set [3] (setting [4]), the Tmax came out at 4.98 min, the clearance came to 36.8 mL/min/kg and the half-life was 37 min. Besides, in data set [3] (setting [5]), the AUC(0-inf) is 1830 ng·h/mL, the AUC(0-t) amounted to 1820 ng·h/mL, the highest level (Cmax) was 1010 ng/mL and the MRT inf was 78.6 min. Moreover, in data set [3] (setting [5]), the Tmax stood at 20 min and the half-life was 39.1 min. The F in data set [3] (i.g group, 5 mg/kg) is given as 80.7%. In addition, in data set [2], the IC50 came to 720 nM.

The term IC50 denotes the concentration at which inhibition is half-maximal. What is called AUC(0-inf) is the area under the concentration-time curve extrapolated to infinity. For orientation: AUC(0-t) means the area under the concentration-time curve up to a stated or last time point. The low end stands for low exposure, the high end for high exposure. The term Cmax denotes the highest concentration seen after dosing. The term MRT inf denotes the average time that molecules of a dose stay in the body. One may read the Tmax as the time from dosing to the highest level. Usually half-life stands for how long it takes for the measured level to halve. A low value points to rapid decline.

The values are drawn from patent US11225460B2, “Pyrrolidineamide derivatives and uses thereof” (SUNSHINE LAKE PHARMA CO., LTD., priority 2019, dated 2022).
